Experimental data taken from publication PMC8286840, “Identifying SARS-CoV-2 antiviral compounds by screening for small molecule inhibitors of Nsp3 papain-like protease” (Biochemical Journal, 2021).
Where a name gives a salt, the structure may show the parent alone. Read-outs that look alike come from different tables or passages of the source.

Legend:
[1] = target: T1, SARS-CoV-2 PLpro (nsp3 1564–1878) (Severe acute respiratory syndrome coronavirus 2, UniProt P0DTD1); test: biochemical; parameters: FRET-quenched peptide (Pro3) cleavage by PLpro, 10 min pre-incubation, slope over 20 min, normalised to no-compound control; conditions: low concentration screen, read-out: % of control remaining
[2] = target: T1, SARS-CoV-2 PLpro (nsp3 1564–1878); test: biochemical; parameters: FRET-quenched peptide (Pro3) cleavage by PLpro, 10 min pre-incubation, slope over 20 min, normalised to no-compound control; conditions: high concentration screen, read-out: % of control remaining

c1cnc(N2CCN(Cc3ccc4c(c3)OCO4)CC2)nc1 [Piribedil.2HCl]
remaining activity at 1.25 µM ([1]; Well no.=1841): 96.6%
remaining activity at 3.75 µM ([2]; Well no.=1841): 95.4%

CN1C(C(=O)Nc2ccccn2)=C(O)c2ccccc2S1(=O)=O [Piroxicam]
remaining activity at 1.25 µM ([1]; Well no.=862): 99.8%
remaining activity at 1.25 µM ([1]; Well no.=1566): 98.4%
remaining activity at 3.75 µM ([2]; Well no.=862): 103%
remaining activity at 3.75 µM ([2]; Well no.=1566): 99.8%

O=C(O)C[C@H](O)C[C@H](O)/C=C/c1c(C2CC2)nc2ccccc2c1-c1ccc(F)cc1 [Pitavastatin Calcium]
remaining activity at 1.25 µM ([1]; Well no.=8334): 97.4%
remaining activity at 3.75 µM ([2]; Well no.=8334): 95.7%

Clc1ccc(CCCOCCCN2CCCCC2)cc1 [Pitolisant (hydrochloride)]
remaining activity at 1.25 µM ([1]; Well no.=6225): 100%
remaining activity at 3.75 µM ([2]; Well no.=6225): 101%

CC(C)(C)C(=O)OCOC(=O)[C@@H]1N2C(=O)[C@@H](/N=C/N3CCCCCC3)[C@H]2SC1(C)C [Pivmecillinam]
remaining activity at 1.25 µM ([1]; Well no.=5414): 93.3%
remaining activity at 3.75 µM ([2]; Well no.=5414): 98.6%

CN1CCC(=C2c3ccccc3CCc3sccc32)CC1 [Pizotifen]
remaining activity at 1.25 µM ([1]; Well no.=7531): 103%
remaining activity at 3.75 µM ([2]; Well no.=7531): 91.1%

c1cc(CN2CCCNCCNCCCNCC2)ccc1CN1CCCNCCNCCCNCC1 [Plerixafor (octahydrochloride)]
remaining activity at 1.25 µM ([1]; Well no.=8020): 95.7%
remaining activity at 1.25 µM ([1]; Well no.=8097): 104%
remaining activity at 1.25 µM ([1]; Well no.=8749): 100%
remaining activity at 3.75 µM ([2]; Well no.=8020): 94.1%
remaining activity at 3.75 µM ([2]; Well no.=8097): 101%
remaining activity at 3.75 µM ([2]; Well no.=8749): 100%

c1cc(CN2CCCNCCNCCCNCC2)ccc1CN1CCCNCCNCCCNCC1 [Plerixafor]
remaining activity at 1.25 µM ([1]; Well no.=6893): 101%
remaining activity at 1.25 µM ([1]; Well no.=8356): 91.6%
remaining activity at 1.25 µM ([1]; Well no.=8751): 98.3%
remaining activity at 3.75 µM ([2]; Well no.=8356): 92.1%
remaining activity at 3.75 µM ([2]; Well no.=8751): 99.2%

CO[C@H](C(=O)[C@@H](O)[C@@H](C)O)[C@@H]1Cc2cc3cc(O[C@H]4C[C@@H](O[C@@H]5C[C@@H](O)[C@H](O)[C@@H](C)O5)[C@H](O)[C@@H](C)O4)c(C)c(O)c3c(O)c2C(=O)[C@H]1O[C@H]1C[C@@H](O[C@@H]2C[C@@H](O)[C@@H](O[C@@H]3C[C@](C)(O)[C@H](O)[C@@H](C)O3)[C@@H](C)O2)[C@H](O)[C@@H](C)O1 [Plicamycin]
remaining activity at 1.25 µM ([1]; Well no.=1666): 107%
remaining activity at 3.75 µM ([2]; Well no.=1666): 106%

CC(C)(C)c1[nH]cnc1/C=c1\[nH]c(=O)/c(=C/c2ccccc2)[nH]c1=O [Plinabulin (NPI-2358)]
remaining activity at 1.25 µM ([1]; Well no.=4834): 99%
remaining activity at 3.75 µM ([2]; Well no.=4834): 102%

CC1=CC(=O)c2c(O)cccc2C1=O [Plumbagin]
remaining activity at 1.25 µM ([1]; Well no.=3351): 85.5%
remaining activity at 3.75 µM ([2]; Well no.=3351): 79.6%

C[C@]1(C(=O)O)CCC[C@]2(C)c3cc(O)ccc3CC[C@@H]12 [Podocarpic acid]
remaining activity at 1.25 µM ([1]; Well no.=3296): 94%
remaining activity at 3.75 µM ([2]; Well no.=3296): 96.2%

COc1cc([C@@H]2c3cc4c(cc3[C@H](O)[C@H]3COC(=O)[C@H]23)OCO4)cc(OC)c1OC [Podophyllotoxin]
remaining activity at 1.25 µM ([1]; Well no.=1002): 91.2%
remaining activity at 1.25 µM ([1]; Well no.=3705): 99.5%
remaining activity at 3.75 µM ([2]; Well no.=1002): 92.3%
remaining activity at 3.75 µM ([2]; Well no.=3705): 105%

OC[C@H]1O[C@@H](Oc2cc(O)cc(/C=C/c3ccc(O)cc3)c2)[C@H](O)[C@@H](O)[C@@H]1O [Polydatin]
remaining activity at 1.25 µM ([1]; Well no.=6304): 100%
remaining activity at 1.25 µM ([1]; Well no.=8196): 102%
remaining activity at 3.75 µM ([2]; Well no.=6304): 98.5%
remaining activity at 3.75 µM ([2]; Well no.=8196): 97.4%

Nc1cccc2c1C(=O)N(C1CCC(=O)NC1=O)C2=O (centres unmarked) [Pomalidomide]
remaining activity at 1.25 µM ([1]; Well no.=4963): 100%
remaining activity at 3.75 µM ([2]; Well no.=4963): 96.3%

Cc1ccc(C(=O)Nc2ccc(CN3CCN(C)CC3)c(C(F)(F)F)c2)cc1C#Cc1cnc2cccnn12 [Ponatinib (AP24534)]
remaining activity at 1.25 µM ([1]; Well no.=4913): 98.1%
remaining activity at 3.75 µM ([2]; Well no.=4913): 95.4%

O=S(=O)(O)c1cc(S(=O)(=O)O)c2c(N=Nc3ccc(S(=O)(=O)O)c4ccccc34)c(O)ccc2c1 [Ponceau 4R]
remaining activity at 1.25 µM ([1]; Well no.=8550): 104%
remaining activity at 3.75 µM ([2]; Well no.=8550): 102%

CCC/N=C1\S/C(=C\c2ccc(OC[C@H](O)CO)c(Cl)c2)C(=O)N1c1ccccc1C [Ponesimod]
remaining activity at 1.25 µM ([1]; Well no.=8001): 106%
remaining activity at 3.75 µM ([2]; Well no.=8001): 102%

CC[C@@H]([C@H](C)O)n1ncn(-c2ccc(N3CCN(c4ccc(OC[C@@H]5CO[C@@](Cn6cncn6)(c6ccc(F)cc6F)C5)cc4)CC3)cc2)c1=O [Posaconazole]
remaining activity at 1.25 µM ([1]; Well no.=4763): 93.6%
remaining activity at 3.75 µM ([2]; Well no.=4763): 92.9%

C#CCC(Cc1cnc2nc(N)nc(N)c2n1)c1ccc(C(=O)N[C@@H](CCC(=O)O)C(=O)O)cc1 (some centres unmarked) [Pralatrexate]
remaining activity at 1.25 µM ([1]; Well no.=7550): 97%
remaining activity at 1.25 µM ([1]; Well no.=9172): 83.9%
remaining activity at 3.75 µM ([2]; Well no.=7550): 95.8%
remaining activity at 3.75 µM ([2]; Well no.=9172): 84.5%

CCCN[C@H]1CCc2nc(N)sc2C1 [Pramipexole (dihydrochloride)]
remaining activity at 1.25 µM ([1]; Well no.=6229): 108%
remaining activity at 3.75 µM ([2]; Well no.=6229): 106%

CCCN[C@H]1CCc2nc(N)sc2C1 [Pramipexole]
remaining activity at 1.25 µM ([1]; Well no.=1983): 101%
remaining activity at 3.75 µM ([2]; Well no.=1983): 104%

CC(C)N(CCNC(=O)CN1CCCC1=O)C(C)C [Pramiracetam]
remaining activity at 1.25 µM ([1]; Well no.=4950): 96.1%
remaining activity at 3.75 µM ([2]; Well no.=4950): 96.4%

O=C(Nc1cccc2c(=O)cc(-c3nnn[nH]3)oc12)c1ccc(OCCCCc2ccccc2)cc1 [Pranlukast]
remaining activity at 1.25 µM ([1]; Well no.=1720): 99.8%
remaining activity at 1.25 µM ([1]; Well no.=7329): 103%
remaining activity at 3.75 µM ([2]; Well no.=1720): 101%
remaining activity at 3.75 µM ([2]; Well no.=7329): 98.4%

CC(C(=O)O)c1ccc2c(c1)Cc1cccnc1O2 (centres unmarked) [Pranoprofen]
remaining activity at 1.25 µM ([1]; Well no.=2139): 98.7%
remaining activity at 3.75 µM ([2]; Well no.=2139): 99.8%

CC(=O)Oc1cc2c(s1)CCN(C(C(=O)C1CC1)c1ccccc1F)C2 (centres unmarked) [Prasugrel (Effient)]
remaining activity at 1.25 µM ([1]; Well no.=4765): 103%
remaining activity at 3.75 µM ([2]; Well no.=4765): 104%

CC(=O)Oc1cc2c(s1)CCN(C(C(=O)C1CC1)c1ccccc1F)C2 (centres unmarked) [Prasugrel]
remaining activity at 1.25 µM ([1]; Well no.=6562): 97%
remaining activity at 3.75 µM ([2]; Well no.=6562): 102%

COc1ccc(-c2cc(=O)c3ccc(O)cc3o2)cc1 [Pratol]
remaining activity at 1.25 µM ([1]; Well no.=3829): 97.5%
remaining activity at 3.75 µM ([2]; Well no.=3829): 96.6%

COc1ccc(C(=O)c2c(C)n(CCN3CCOCC3)c3ccccc23)cc1 [Pravadoline]
remaining activity at 1.25 µM ([1]; Well no.=1805): 97.2%
remaining activity at 3.75 µM ([2]; Well no.=1805): 97.7%

CC[C@H](C)C(=O)O[C@H]1C[C@H](O)C=C2C=C[C@H](C)[C@H](CC[C@@H](O)C[C@@H](O)CC(=O)O)[C@H]21 [Pravastatin sodium salt hydrate]
remaining activity at 1.25 µM ([1]; Well no.=5462): 96.8%
remaining activity at 3.75 µM ([2]; Well no.=5462): 97.8%
